Measured values as given in US7317115B2, “Mandelates salts of substituted tetracyclic tetrahydrofuran derivatives” (Janssen Pharmaceutica, N.V., priority 2001, dated 2008).
Entries after “also recorded” stand apart in the source; their conditions may differ.

Columns and labels:
Assay type in all cases: physicochemical
[1] = Adsorption and desorption of water; conditions: 25° C., different relative humidity; listed as tartrate salt
Experimental: The adsorption and desorption of water at 25° C. at different conditions of relative humidity is investigated on an amount of ±10 mg of each salt. The weight change as a function of relative humidity is registered.

[2] = Crystallographic stability (TGA, DSC, IR after storage); as to IR: key: ~Ref: identical with reference
Experimental: The stability of the crystal structure of the salt is studied after storage of the compounds for a period of two weeks at room temperature (RT) under either 5%, 75% and 25° C./60% relative humidity (RH). The samples are analyzed with thermogravimetry (TGA), differential scanning calorimetry (DSC) and infrared spectroscopy (IR).

[3] = Chemical stability (HPLC and visual inspection after storage); conditions: for HPLC Sum of impurities: in % (unit assumed)
Experimental: In the chemical stability test program the salts are stored for periods of 2, 4 and 8 weeks under different conditions. These conditions are 40° C./75% RH, 50° C., daylight, RT/5% RH, RT/75% RH, 25° C./60% RH and artificial light. The mandelate salt and the ditoluoyltartrate salt are also stored 8 hours in 0.3 da ICH light. The compounds are analyzed after storage by HPLC and by visual inspection.

Appearance ([2]; 0 days): white
DSC Max ([2]; 0 days): 158.8 °C
DSC ΔH ([2]; 0 days): 85.9 J/g
TGA <100° C. ([2]; 0 days): 0%
Appearance ([2]; two weeks, RT/56% RH): white
DSC Max ([2]; two weeks, RT/56% RH): 159.0 °C
DSC ΔH ([2]; two weeks, RT/56% RH): 86.2 J/g
IR ([2]; two weeks, RT/56% RH): ~Ref
TGA <100° C. ([2]; two weeks, RT/56% RH): 0.1%
Appearance ([2]; two weeks, RT/75% RH): white
DSC Max ([2]; two weeks, RT/75% RH): 159.0 °C
DSC ΔH ([2]; two weeks, RT/75% RH): 85.5 J/g
TGA <100° C. ([2]; two weeks, RT/75% RH): 0%
Appearance ([2]; two weeks, RT/<5% RH): white
DSC Max ([2]; two weeks, RT/<5% RH): 160.3 °C
DSC ΔH ([2]; two weeks, RT/<5% RH): 86.4 J/g
TGA <100° C. ([2]; two weeks, RT/<5% RH): 0%
Appearance ([3]; 25° C./60% RH, 4 weeks): white
HPLC Sum of impurities ([3]; 25° C./60% RH, 4 weeks): 0.75
Appearance ([3]; 25° C./60% RH, 8 weeks): white
HPLC Sum of impurities ([3]; 25° C./60% RH, 8 weeks): 0.77
Appearance ([3]; 40° C./75% RH, 2 weeks): white
HPLC Sum of impurities ([3]; 40° C./75% RH, 2 weeks): 0.72
Appearance ([3]; 40° C./75% RH, 4 weeks): white
HPLC Sum of impurities ([3]; 40° C./75% RH, 4 weeks): 0.83
Appearance ([3]; 40° C./75% RH, 8 weeks): almost white
HPLC Sum of impurities ([3]; 40° C./75% RH, 8 weeks): 0.93
Appearance ([3]; 50° C., 2 weeks): white
HPLC Sum of impurities ([3]; 50° C., 2 weeks): 0.72
Appearance ([3]; 50° C., 4 weeks): white
HPLC Sum of impurities ([3]; 50° C., 4 weeks): 0.77
Appearance ([3]; 50° C., 8 weeks): almost white
HPLC Sum of impurities ([3]; 50° C., 8 weeks): 0.79
Appearance ([3]; Artificial light (2 weeks)): white
HPLC Sum of impurities ([3]; Artificial light (2 weeks)): 0.79
Appearance ([3]; Daylight, 2 weeks): white
HPLC Sum of impurities ([3]; Daylight, 2 weeks): 0.75
Appearance ([3]; Daylight, 4 weeks): almost
HPLC Sum of impurities ([3]; Daylight, 4 weeks): 0.85
Appearance ([3]; Daylight, 8 weeks): slightly
HPLC Sum of impurities ([3]; Daylight, 8 weeks): 0.91
Appearance ([3]; RT/75% RH, 4 weeks): white
HPLC Sum of impurities ([3]; RT/75% RH, 4 weeks): 0.72
Appearance ([3]; RT/75% RH, 8 weeks): white
HPLC Sum of impurities ([3]; RT/75% RH, 8 weeks): 0.80
Appearance ([3]; RT/<5% RH, 4 weeks): white
HPLC Sum of impurities ([3]; RT/<5% RH, 4 weeks): 0.73
Appearance ([3]; RT/<5% RH, 8 weeks): white
HPLC Sum of impurities ([3]; RT/<5% RH, 8 weeks): 0.75
Appearance ([3]; Reference (2 weeks)): white
HPLC Sum of impurities ([3]; Reference (2 weeks)): 0.72
Substance: B-(2α,3aα,12bβ)-11-fluoro-3,3a,8,12b-tetrahydro-N-methyl-2H-dibenzo-[3,4:6,7]cyclohepta[1,2-b]furan-2 methanamine [Tartrate]
water adsorption/desorption behaviour (weight change as a function of relative humidity) [1]: less stable but the weight change as a function of the relative humidity is very small; also recorded: good adsorption desorption profile
crystallographic stability ([2]; storage two weeks under different relative humidities, listed as tartrate salt): crystallographic stable; also recorded: crystallographically stable
chemical stability ([3]; storage 2, 4 and 8 weeks under different conditions, listed as tartrate salt): showed a sensitivity towards 40° C./70% RH and light; also recorded: shows sensitivity towards higher humidities and light
